The text below walks through data of PMC9969396, “Development of Human Carbonic Anhydrase II Heterobifunctional Degraders” (Journal of Medicinal Chemistry, 2023).

The target in test [1] is T1, hCAII (Homo sapiens, UniProt P00918).
T1 construct: made in house; host or cells: Escherichia coli BL21(DE3), pACA plasmid (gift from Carol A. Fierke)
As to the kind of experiment: colorimetric p-nitrophenyl acetate hCAII activity assay. Format: biochemical. On the procedure:
To verify that the p-sulfamoyl benzamide MBP retained its binding following ligation with the linker and bulky recruiting group moieties, the inhibition activity of each degrader candidate was determined using a colorimetric p-nitrophenol acetate hCAII activity assay.[46] In short, recombinantly expressed hCAII was preincubated with the degrader candidate before the addition of p-nitrophenyl acetate, a substrate that upon enzymatic cleavage leads to acetic acid and p-nitrophenolate.
Recombinant hCAII was expressed and purified according to the protocol reported in the Supporting Information. […] Wells were prepared to a final volume of 100 μL per well, including buffer (50 mM HEPES, pH 8.0), enzyme (hCAII, 40 nM), inhibitor (varying concentrations), and substrate (p-nitrophenyl acetate, 500 μM). Inhibitors and protein were preincubated for 10 min at rt, and the substrate was added to the reaction mixture immediately before reading. […] The rate of absorbance for each replicate was corrected for substrate autohydrolysis and inherent inhibitor absorbance by subtracting the rate of absorbance from a blank sample lacking enzyme but containing the inhibitor and substrate. Samples lacking inhibitor but containing enzyme and substrate were used to define 100% hCAII activity. Samples lacking inhibitor and enzyme were used to define 0% hCAII activity. IC50 was determined using non-linear regression with a variable slope on the GraphPad Prism software.

Test [2] has as its target T2, hCAII (Homo sapiens, UniProt P00918+Q96SW2).
T2 construct: HEK293 cells, a line known to abundantly express hCAII; endogenous in cells; host or cells: HEK293
As to the kind of experiment: time-course of hCAII abundance in HEK293 cells, western blot. To be noted: 50 nM. The class given is cell-based. On the procedure:
To determine the efficiency of 11, hCAII abundance was evaluated in HEK293 cells that were dosed with 50 nM of 11 over 48 h. Depletion of hCAII relative to vehicle (DMSO) began within 2 h and reached a maximal effect by 6 h (Figure 5c). Sustained degradation was also observed for the entirety of the 48 h tested. Based on the results of this time-course dosing experiment, it appears that 11 begins degrading hCAII quickly after exposure to the cell and maintains prolonged activity after initial dosing.
After reaching 90% confluency, HEK293 cells were trypsinized, counted, and plated with 2 mL media at 2 × 10^6 cells per well on a tissue-culture-treated, 6-well plate. […] Lysates were thawed on ice, and the total protein concentration was measured using a Pierce bicinchoninic acid protein assay (Thermo Fisher Scientific, 23225). […] The immunoblot was then analyzed using the ImageJ software as an 8-bit image. The brightness and contrast of the image were adjusted, and the integrated density was calculated for each protein band using the gel lane analysis tool. Relative hCAII expression was calculated by normalizing the hCAII/β-actin ratio in compound-treated wells to the hCAII/β-actin ratio in vehicle (DMSO)-treated wells and indicated as “hCAII Abundance (% DMSO)”.

Test [3] concerns the target T2, hCAII. As to the kind of experiment: competition / mechanistic experiments on hCAII degradation in HEK293 cells, western blot. The class given is cell-based. To be noted: then 50 nM for 6 h. How it is done: Competition experiments were performed to verify that the degradation activity of 11 was the result of a PROTAC-style mechanism requiring concurrent degrader engagement with both hCAII and CRBN.
After reaching 90% confluency, HEK293 cells were trypsinized, counted, and plated with 2 mL media at 2 × 10^6 cells per well on a tissue-culture-treated, 6-well plate. At the appropriate number of hours before reaching ∼90% confluency, cells were treated with DMSO solutions of the appropriate compounds (final concentration 0.5% DMSO per well). Upon reaching 90% confluency, typically 72 h, culture media were removed and the cells were washed with cold Dulbecco’s phosphate-buffered saline (DPBS). Lysis buffer, composed of cell lysis buffer (Cell Signaling Technology, 9803), protease inhibitor cocktail (Cell Signaling Technology, 5872), and 1 mM phenylmethylsulfonylfluoride, was added to each well, and the plates were rocked at 4 °C for 20 min. Cells were then scraped from the bottom of the plates, and the supernatant was collected after spinning down at 14,000g at 4 °C for 10 min and frozen at −80 °C. Lysates were thawed on ice, and the total protein concentration was measured using a Pierce bicinchoninic acid protein assay (Thermo Fisher Scientific, 23225). […] Following heating at 98 °C for 5 min and cooling to room temperature, the prepared samples were electrophoretically separated on a 4–20% TGX gel (Bio-Rad, 4568095) and transferred to a PVDF membrane (Amersham Hybond P 0.45 μm, 106000019) in a tris-glycine transfer buffer (Thermo Fisher Scientific, LC3675) with a 20% final MeOH concentration. […] The immunoblot was then analyzed using the ImageJ software as an 8-bit image. The brightness and contrast of the image were adjusted, and the integrated density was calculated for each protein band using the gel lane analysis tool. Relative hCAII expression was calculated by normalizing the hCAII/β-actin ratio in compound-treated wells to the hCAII/β-actin ratio in vehicle (DMSO)-treated wells and indicated as “hCAII Abundance (% DMSO)”.

Test [4] concerns the target T2, hCAII. As to the kind of experiment: nine-point dose response hCAII degradation assay in HEK293 cells, western blot. Format: cell-based. On the procedure: Three biological replicates of HEK293 cells were dosed in parallel with 4 or 5 at concentrations ranging from 5 pM to 15 μM for 24 h prior to lysis. […] This phenomenon can be attributed to the binary complexes of degrader-POI and degrader-E3 ligase outcompeting the POI-degrader-E3 ligase ternary complex at high degrader concentrations. […] The half-maximal degradation (DC50 value reported as a 95% confidence interval) and maximum percentage of degradation (DMax) of each active degrader were determined using a least squares sigmoidal fitting of the degradation activity of dosing concentrations below the observable “hook effect” (Figure 2B).
Figure 3 Dose-dependent degradation of hCAII by 4 and 5. (A) Western blot images of HEK293 cells dosed for 24 h with degrader 4 (left) or 5 (right) at concentrations of 5 pM to 15 μM. (B) Dose response curves of hCAII abundance as a percent of DMSO vehicle for 4 (left) or 5 (right). Band intensities of blots from three biological replicates were quantified using ImageJ software (Experimental Section). Data were normalized to a vehicle-treated (DMSO) group and plotted as a sigmoidal curve. Nonlinear fitting of log([inhibitor]) vs response (three parameters) was generated for 4 with R^2 = 0.955 and 5 with R^2 = 0.855 in GraphPad Prism. Points marked with an asterisk indicate only two biological replicates. In all other cases, error bars represent the standard deviation of triplicate experiments. Full images of the western blots are provided in the Supporting Information (Figures S1 and S3).
Given the inactivity of 1–3 and increased potency of 4 over 5, a 12-atom linker appeared to be a preferred length for favorable ternary complex formation in the heterobifunctional degraders tested. To further examine the role of linker length and composition, we explored hydrocarbon linkers for their ability to improve degrader lipophilicity and membrane permeability without impacting the favorable ternary complex formation. […] Western blot analysis and quantification of three biological replicates identified the degradation of hCAII at concentrations of 11 as low as 50 pM and achieved near-complete hCAII degradation at concentrations of 5 nM (Figures 5A and S3).
After reaching 90% confluency, HEK293 cells were trypsinized, counted, and plated with 2 mL media at 2 × 10^6 cells per well on a tissue-culture-treated, 6-well plate. At the appropriate number of hours before reaching ∼90% confluency, cells were treated with DMSO solutions of the appropriate compounds (final concentration 0.5% DMSO per well). Upon reaching 90% confluency, typically 72 h, culture media were removed and the cells were washed with cold Dulbecco’s phosphate-buffered saline (DPBS). Lysis buffer, composed of cell lysis buffer (Cell Signaling Technology, 9803), protease inhibitor cocktail (Cell Signaling Technology, 5872), and 1 mM phenylmethylsulfonylfluoride, was added to each well, and the plates were rocked at 4 °C for 20 min. Cells were then scraped from the bottom of the plates, and the supernatant was collected after spinning down at 14,000g at 4 °C for 10 min and frozen at −80 °C. Lysates were thawed on ice, and the total protein concentration was measured using a Pierce bicinchoninic acid protein assay (Thermo Fisher Scientific, 23225). […] Following heating at 98 °C for 5 min and cooling to room temperature, the prepared samples were electrophoretically separated on a 4–20% TGX gel (Bio-Rad, 4568095) and transferred to a PVDF membrane (Amersham Hybond P 0.45 μm, 106000019) in a tris-glycine transfer buffer (Thermo Fisher Scientific, LC3675) with a 20% final MeOH concentration. The membrane was rocked at 4 °C with fluorescent blocking buffer (Thermo Fisher Scientific, 37565) for 1 h and then incubated with primary antibodies (hCAII Rabbit mAb, 1:1000 and β-actin Rabbit pAb, 1:2000 in fluorescent blocking buffer) at 4 °C overnight. […]

Setting [5] is: recombinant hCAII 40 nM, p-nitrophenyl acetate 500 μM, pH 8.0, 95% confidence interval, read-out: IC50 (nM), hCAII inhibition activity (Table S1).
[6] abbreviates: SMILES csv supplement, read-out: hCAII IC50.
The mark [7] stands for this setting: enzyme concentration of 40 nM, read-out: IC50, below the detection limit of the assay.

Like-named read-outs stand apart in the source and are kept apart here. Bounds are passed on as bounds.

Take `NS(=O)(=O)c1ccc(C(=O)NCCOCCNC(=O)CC23CC4CC(CC(C4)C2)C3)cc1` [Compound 6, N-(2-(2-(2-((3r,5r,7r)-Adamantan-1-yl)acetamido)ethoxy)ethyl)-4-sulfamoylbenzamide]: the IC50 on hCAII [1] (setting [5]) is 57 ± 5 nM.
For the compound `NS(=O)(=O)c1ccc(C(=O)NCCOCCOCCOCCNC(=O)CC23CC4CC(CC(C4)C2)C3)cc1` [Compound 8, N-(1-((3r,5r,7r)-Adamantan-1-yl)-2-oxo-6,9,12-trioxa-3-azatetradecan-14-yl)-4-sulfamoylbenzamide], the IC50 at hCAII [1] (setting [6]) and at hCAII [1] (setting [5]) was 28 ± 4 nM throughout.
In the case of `NS(=O)(=O)c1ccc(C(=O)NCCOCCOCCNC(=O)CC23CC4CC(CC(C4)C2)C3)cc1` [Compound 7, N-(2-(2-(2-(2-((3r,5r,7r)-Adamantan-1-yl)acetamido)ethoxy)ethoxy)ethyl)-4-sulfamoylbenzamide], the IC50 at hCAII [1] (setting [7]) and at hCAII [1] (setting [5]) was at most 20 nM throughout.
With `NS(=O)(=O)c1ccc(C(=O)NCCCOCCOCCOCCCNC(=O)CC23CC4CC(CC(C4)C2)C3)cc1` [Compound 10, N-(1-((3r,5r,7r)-Adamantan-1-yl)-2-oxo-7,10,13-trioxa-3-azahexadecan-16-yl)-4-sulfamoylbenzamide], the IC50 on hCAII [1] (setting [7]) and on hCAII [1] (setting [5]) was at most 20 nM throughout.
As to `NS(=O)(=O)c1ccc(C(=O)NCCCOCCCCOCCCNC(=O)CC23CC4CC(CC(C4)C2)C3)cc1` [Compound 9, N-(3-(4-(3-(2-((3r,5r,7r)-Adamantan-1-yl)acetamido)propoxy)butoxy)propyl)-4-sulfamoylbenzamide], the IC50 on hCAII [1] (setting [6]) and at hCAII [1] (setting [5]) was 35 ± 5 nM throughout.
As to `COCCNC(=O)c1ccc(S(N)(=O)=O)cc1` [Compound 13, N-(2-Methoxyethyl)-4-sulfamoylbenzamide], the IC50 on hCAII [1] (setting [6]) and at hCAII [1] (setting [5]) was 58 ± 8 nM each time.
As to `NS(=O)(=O)c1ccc(C(=O)NCCOCCNc2cccc3c2C(=O)N(C2CCC(=O)NC2=O)C3=O)cc1` (stereo not shown) [Compound 1, N-(2-(2-((2-(2,6-Dioxopiperidin-3-yl)-1,3-dioxoisoindolin-4-yl)amino)ethoxy)ethyl)-4-sulfamoylbenzamide], the IC50 at hCAII [1] (setting [6]) and on hCAII [1] (setting [5]) was 48 ± 5 nM in each case.
Consider `NS(=O)(=O)c1ccc(C(=O)NCCCCCCCCCCCCNc2cccc3c2C(=O)N(C2CCC(=O)NC2=O)C3=O)cc1` (stereo not shown) [Compound 11, N-(12-((2-(2,6-Dioxopiperidin-3-yl)-1,3-dioxoisoindolin-4-yl)amino)dodecyl)-4-sulfamoylbenzamide], for which the “time to maximal effect” value on hCAII [2] was at most 6 h. For the same compound, the “hCAII degradation after MG132 pre-treatment” value at hCAII [3] (HEK293, 1 μM MG-132 for 1 h) is listed as “complete loss of hCAII degradation activity”. Further, on hCAII [3] (HEK293, 1 h preincubation with 5 μM acetazolamide), the “hCAII degradation after acetazolamide pre-treatment” value is given as “no degradation of hCAII”. The “hCAII degradation after lenalidomide pre-treatment” value on hCAII [3] (HEK293, 1 h preincubation with 5 μM lenalidomide) is on record as “no degradation of hCAII”. Also, on hCAII [4] (HEK293, HEK293 cells, 24 h, read-out: DMax (maximum percentage of degradation)), the Dmax was 100%. At hCAII [4] (HEK293 cells, 24 h), the “concentration achieving near-complete hCAII degradation” value turned out to be 5 nM and the “degradation of hCAII at concentrations as low as” value was 50 pM. For the same compound, at hCAII [4] (HEK293 cells, 24 h, 5 pM to 15 μM, 95% confidence interval, read-out: DC50 (half-maximal degradation)), the DC50 is 0.5 ± 0.3 nM. Also, at hCAII [4] (HEK293 cells, 24 h, doses up to 15 μM), the “hook effect (attenuation of target degradation at high concentration)” value is on record as “no appreciable “hook effect””. For the same compound, at hCAII [4] (from DC50 values), the “fold increase in activity over 4” value is 10 fold.
Take `NS(=O)(=O)c1ccc(C(=O)NCCOCCOCCOCCNc2cccc3c2C(=O)N(C2CCC(=O)NC2=O)C3=O)cc1` (stereo not shown) [Compound 3, N-(2-(2-(2-(2-((2-(2,6-Dioxopiperidin-3-yl)-1,3-dioxoisoindolin-4-yl)amino)ethoxy)ethoxy)ethoxy)ethyl)-4-sulfamoylbenzamide]: the IC50 on hCAII [1] (setting [6]) and at hCAII [1] (setting [5]) was 41 ± 5 nM throughout.
